This experiment addresses hERG potassium channel (Homo sapiens, UniProt Q12809). The experiment can be described thus: radio-ligand competitive binding assay.

Structures are written as SMILES.

Chain of hERG potassium channel (Q12809 whole entry): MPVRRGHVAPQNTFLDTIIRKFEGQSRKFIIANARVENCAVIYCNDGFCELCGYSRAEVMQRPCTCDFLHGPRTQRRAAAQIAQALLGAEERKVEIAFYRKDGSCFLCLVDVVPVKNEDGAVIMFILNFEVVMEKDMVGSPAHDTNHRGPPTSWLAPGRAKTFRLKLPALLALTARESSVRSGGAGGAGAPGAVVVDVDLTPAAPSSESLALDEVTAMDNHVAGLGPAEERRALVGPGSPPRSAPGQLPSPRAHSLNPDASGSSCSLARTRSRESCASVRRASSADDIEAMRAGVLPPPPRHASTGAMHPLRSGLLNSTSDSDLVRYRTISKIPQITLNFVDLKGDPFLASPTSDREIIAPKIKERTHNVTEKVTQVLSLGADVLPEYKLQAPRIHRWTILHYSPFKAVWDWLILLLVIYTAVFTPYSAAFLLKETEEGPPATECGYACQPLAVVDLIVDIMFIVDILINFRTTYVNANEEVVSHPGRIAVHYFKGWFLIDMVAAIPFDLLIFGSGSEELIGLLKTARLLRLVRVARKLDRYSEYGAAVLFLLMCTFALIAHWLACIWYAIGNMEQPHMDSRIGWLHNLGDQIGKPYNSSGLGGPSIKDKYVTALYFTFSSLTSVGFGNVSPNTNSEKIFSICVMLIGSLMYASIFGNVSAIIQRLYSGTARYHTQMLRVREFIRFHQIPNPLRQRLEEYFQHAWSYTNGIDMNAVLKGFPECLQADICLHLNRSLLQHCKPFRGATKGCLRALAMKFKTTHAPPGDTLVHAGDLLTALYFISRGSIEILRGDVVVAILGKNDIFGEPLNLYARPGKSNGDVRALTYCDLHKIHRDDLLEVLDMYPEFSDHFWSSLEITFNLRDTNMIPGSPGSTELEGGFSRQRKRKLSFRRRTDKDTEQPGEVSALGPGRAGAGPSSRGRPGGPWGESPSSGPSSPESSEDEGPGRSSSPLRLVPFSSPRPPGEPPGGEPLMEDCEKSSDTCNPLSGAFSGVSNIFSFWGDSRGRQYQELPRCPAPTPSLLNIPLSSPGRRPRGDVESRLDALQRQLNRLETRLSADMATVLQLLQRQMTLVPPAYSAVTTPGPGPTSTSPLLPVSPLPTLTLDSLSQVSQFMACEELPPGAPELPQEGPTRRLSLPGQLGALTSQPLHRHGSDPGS

The molecule `CN1CCN(CCCCN2C(=O)CN(/N=C/c3ccc(-c4ccc(Cl)cc4)o3)C2=O)CC1` [Azimilide] yielded a concentration for half-maximal inhibition (IC50) of 1910 nM and a Ki of 954 nM.

As a reminder, the IC50 is the concentration needed to halve the response being measured. A lower IC50 goes with greater potency. By Ki is commonly meant a measure of affinity in units of concentration, obtained from inhibition or displacement. High values mean lower affinity, low ones higher affinity.

Source of the values: PMC4658274 (The Analyst, 2015).
